Experimental data from patent US20260345601A1, “FORMS OF CARBAMATE DERIVATIVES AND RELATED USES” (NodThera Limited, priority 2022, published 2026).
In brackets after ≈: the same amount, converted by molar mass. Entries after “also recorded” stand apart in the source; their conditions may differ.

Experiments:
[1] = tested on: NLRP3 inflammasome; details: reported in literature; cited from earlier work
[2] = Chemical stability evaluation in solvents (Table F); assay type: physicochemical
Experimental: Chemical stability of this compound was evaluated in MeOH, Acetone, MEK, EtOAc, and IPAc at different temperature points.

[3] = TGA (thermo-gravimetric analysis)/thermal analysis; assay type: physicochemical; details: heated at 10 °C/min, nitrogen purge
Experimental: Thermo-Gravimetric Analysis (TGA)
TA Instruments Q500: TGA data were collected on a TA Instruments Q500 TGA, equipped with a 16 position auto-sampler. Typically, 5-10 mg of each sample was loaded onto a pre-tared aluminium DSC pan and heated at 10 °C/min from ambient temperature to 350 °C. A nitrogen purge at 60 ml/min was maintained over the sample. The instrument control software was Advantage for Q Series and Thermal Advantage and the data were analysed using Universal Analysis or TRIOS.

[4] = Gravimetric vapour sorption (GVS); assay type: physicochemical
Experimental: Gravimetric Vapour Sorption (GVS)
Sorption isotherms were obtained using a SMS DVS Intrinsic moisture sorption analyser, controlled by DVS Intrinsic Control software. The sample temperature was maintained at 25 °C by the instrument controls. The humidity was controlled by mixing streams of dry and wet nitrogen, with a total flow rate of 200 ml/min. The relative humidity was measured by a calibrated Rotronic probe (dynamic range of 1.0-100% RH), located near the sample. The weight change, (mass relaxation) of the sample as a function of % RH was constantly monitored by a microbalance (accuracy±0.005 mg).
Typically, 5-30 mg of sample was placed in a tared mesh stainless steel basket under ambient conditions. The sample was loaded and unloaded at 40% RH and 25 °C (typical room conditions). A moisture sorption isotherm was performed as outlined below (2 scans per complete cycle). The standard isotherm was performed at 25 °C at 10% RH intervals over a 0-90% RH range. Typically, a double cycle (4 scans) was carried out. Data analysis was carried out within Microsoft Excel using the DVS Analysis Suite.
The sample was recovered after completion of the isotherm and re-analysed by XRPD.

[5] = Storage at 25 °C/97% RH and 40 °C/75% RH; assay type: physicochemical
Experimental: Chemical Purity Determination by High-Performance Liquid Chromatography (HPLC)
Purity analysis was performed on an Agilent HP1100/Infinity II 1260 series system equipped with a diode array detector and using OpenLAB software. The full method details are provided below:
Unless stated within the appropriate data tables, all HPLC purity data reported has been run using the HPLC Method No. 2.

[6] = Solubility in single solvents, Form 2 as starting material (Table D); assay type: physicochemical; details: 20-25 °C
Experimental: Solubility of Form 1 was measured in several single solvents using Form 2 as starting material, respectively. […] Thus, MeOH, Acetone, MEK, EtOAc and IPAc were selected for further chemical stability evaluation before starting solubility test with anti-solvents.

## NC[C@@H]1O[C@H](c2ccccc2)Cc2c1ccc(O)c2O [Form A-68930]
[1]
  Effect on NLRP3 activation: impair NLRP3 activation

## O=c1c(O)c(-c2ccc(O)c(O)c2)oc2cc(O)cc(O)c12 [quercetin]
[1]
  Effect on NLRP3 activation: suppress NLRP3 activation

## OC[C@H]1O[C@@H](c2ccc(Cl)c(Cc3ccc(O[C@H]4CCOC4)cc3)c2)[C@H](O)[C@@H](O)[C@@H]1O [epigliflozin]
[1]
  Effect on NLRP3 activation: impair NLRP3 activation

## CC(C)OC(=O)[C@@H](Cc1ncccn1)OC(=O)Nc1c2c(cc3c1CCC3)CCC2 [Compound A, propan-2-yl(2R)-2-{[(1,2,3,5,6,7-hexahydro-s-indacen-4-yl)carbamoyl]oxy}-3-(pyrimidin-2-yl) propanoate]
[2]; Acetone and EtOAc, 23 h
  Chemical stability in words: slight degradation
[2]; Acetone, 40 °C, 0 h
  Chemical stability: purity: 99.57%
[2]; Acetone, 40 °C, 5-6 h
  Chemical stability: purity: 99.55%
[2]; Acetone, 40 °C, 23-24 h
  Chemical stability: purity: 98.06%
[2]; EtOAc, 40 °C, 0 h
  Chemical stability: purity: 99.49%
[2]; EtOAc, 40 °C, 5-6 h
  Chemical stability: purity: 99.46%
[2]; EtOAc, 40 °C, 23-24 h
  Chemical stability: purity: 99.46%
[2]; EtOAc, 50 °C, 0 h
  Chemical stability: purity: 99.43%
[2]; EtOAc, 50 °C, 5-6 h
  Chemical stability: purity: 99.31%
[2]; EtOAc, 50 °C, 23-24 h
  Chemical stability: purity: 99.27%
[2]; IPAc, 50 °C, 0 h
  Chemical stability: purity: 99.70%
[2]; IPAc, 50 °C, 5 h
  Chemical stability: purity: 99.73%
[2]; IPAc, 50 °C, 24 h
  Chemical stability in words: chemical stable
  Chemical stability: purity: 99.76%
[2]; MEK, 40 °C, 0 h
  Chemical stability: purity: 99.52%
[2]; MEK, 40 °C, 5-6 h
  Chemical stability: purity: 99.51%
[2]; MEK, 40 °C, 23-24 h
  Chemical stability: purity: 93.28%
[2]; MEK, 50 °C, 0 h
  Chemical stability: purity: 99.38%
[2]; MEK, 50 °C, 5-6 h
  Chemical stability: purity: 92.75%
[2]; MEK, 50 °C, 23-24 h
  Chemical stability: purity: 87.20%
[2]; MeOH and MEK, 23 h
  Chemical stability in words: serious degradation
[2]; MeOH, 50 °C, 0 h
  Chemical stability: purity: 99.12%
[2]; MeOH, 50 °C, 5-6 h
  Chemical stability: purity: 98.03%
[2]; MeOH, 50 °C, 23-24 h
  Chemical stability: purity: 90.58%

## CNCCC(Oc1ccc(C(F)(F)F)cc1)c1ccccc1 (stereo not drawn) [fluoxetine]
[1]
  Effect on NLRP3 activation: impair NLRP3 activation

## OC(CNCC(O)C1CCc2cc(F)ccc2O1)C1CCc2cc(F)ccc2O1 (stereo not drawn) [nebivolol]
[1]
  Effect on NLRP3 activation: impair NLRP3 activation

## Cc1ccc(S(=O)(=O)/C=C/C#N)cc1 [Bay 11-7082]
[1]
  Effect on NLRP3 activation: impair NLRP3 activation

## C[S+]([O-])CCCCN=C=S (stereo not drawn) [sulforaphane]
[1]
  Effect on NLRP3 activation: suppress NLRP3 activation

## CC(C)OC(=O)[C@@H](Cc1ncccn1)OC(=O)Nc1c2c(cc3c1CCC3)CCC2 [Form 2, propan-2-yl(2R)-2-{[(1,2,3,5,6,7-hexahydro-s-indacen-4-yl)carbamoyl]oxy}-3-(pyrimidin-2-yl) propanoate]
[3]
  TGA weight loss before degradation: No weight loss before degradation
[4]; 25 °C
  GVS hygroscopicity: Non-hygroscopic
  GVS hysteresis: no hysteresis
[4]; 25 °C, 0-90% RH
  GVS water uptake: ~0.15% reversible uptake from 0-90% RH
[4]; 25 °C, 40-90% RH
  GVS water uptake: 0.09%
[4]; form after GVS experiment
  XRPD post GVS: remained Form 2; also recorded: Crystalline - Form 2
[5]; 25 °C/97% RH
  Storage: solid form: Crystalline - Form 2
[5]; 25 °C/97% RH and 40 °C/75% RH for 1 week
  Stability at elevated storage: stable
[5]; 40 °C/75% RH
  Storage: solid form: Crystalline - Form 2
[5]; elevated conditions
  Stability of solid form at elevated conditions: stable at elevated conditions
[6]; all selected solvents except water
  Form conversion after slurry (XRPD): converted to Form 1
[6]; H2O, starting material Form 2
  Form after slurry (XRPD): Form 2
[6]; H2O, starting material Form 2, XRPD Form 2
  Solubility: 1000 µg/mL (≈ 2440 µM)

## O=[N+]([O-])C=Cc1ccc2c(c1)OCO2 [3,4-methylenedioxy-β-nitrostyrene]
[1]
  Effect on NLRP3 activation: impair NLRP3 activation

## COc1ccc(Cl)cc1C(=O)NCCc1ccc(S(=O)(=O)NC(=O)NC2CCCCC2)cc1 [Glyburide]
[1]
  Concentration of NLRP3 inhibition in words: micromolar concentrations
  Effect on NLRP3 activation: specific inhibitor of NLRP3 activation

## C=C1C(=O)O[C@H]2[C@H]1CC/C(C)=C/CC[C@@]1(C)O[C@@H]21 [parthenolide]
[1]
  Effect on NLRP3 activation: impair NLRP3 activation
